Results taken from the NIST ThermoML archive (doi:10.1021/je900749a).

Assay: cn = amount concentration of the nth substance listed, in mol/dm3
Conditions: 300 K, Ring tensiometer

CN(C)CCCN1c2ccccc2Sc2ccc(Cl)cc21.Cl + O
Conditions | surface tension liquid-gas [mN/m]
c1 = 0.001381 | 65.7
c1 = 0.002344 | 60.5
c1 = 0.003289 | 57.15
c1 = 0.004762 | 53.4
c1 = 0.006542 | 50.5
c1 = 0.009091 | 47.15
c1 = 0.01228 | 45.2
c1 = 0.01525 | 44.15
c1 = 0.01666 | 44
c1 = 0.01803 | 44.05
c1 = 0.01936 | 44

CN(C)CCC=C1c2ccccc2CCc2ccccc21.Cl + O
Conditions | surface tension liquid-gas [mN/m]
c1 = 0.001584 | 69.15
c1 = 0.003138 | 62.75
c1 = 0.009057 | 55.25
c1 = 0.01455 | 50.75
c1 = 0.02441 | 46.1
c1 = 0.02885 | 44.55
c1 = 0.03301 | 43.15
c1 = 0.0406 | 42.55
c1 = 0.04572 | 42.5

CC(CN1c2ccccc2Sc2ccccc21)N(C)C.Cl (stereo not given) [promethazine hydrochloride] + O
Conditions | surface tension liquid-gas [mN/m]
c1 = 0.002941 | 71.3
c1 = 0.005769 | 64.15
c1 = 0.01111 | 56.45
c1 = 0.01842 | 50.35
c1 = 0.02903 | 46.45
c1 = 0.03637 | 43.4
c1 = 0.04287 | 42.55
c1 = 0.04865 | 42.2
c1 = 0.05385 | 42.1
c1 = 0.05853 | 42.15

CN(C)CCCN1c2ccccc2CCc2ccccc21.Cl + O
Conditions | surface tension liquid-gas [mN/m]
c1 = 0.003658 | 68.55
c1 = 0.007143 | 62.15
c1 = 0.01364 | 54.6
c1 = 0.01957 | 51.7
c1 = 0.03 | 47.05
c1 = 0.03889 | 43.75
c1 = 0.04287 | 43
c1 = 0.04655 | 42.3
c1 = 0.05 | 42.3
c1 = 0.05769 | 42.3
